{"source": "patent US20260151398A1", "about": "“COMPOUNDS FOR REDUCING CHOLESTEROL AND TREATING LIVER AND KIDNEY DISEASE” (McMaster University, priority 2021, published 2026)", "key": {"C57BL/6J mice": {"tested_on": "C57BL/6J mice", "assay": "Mouse studies: circulating PCSK9, triglycerides, ApoB and hepatic markers", "assay_type": "in vivo", "experimental": "Liver tissues were fixed in formaldehyde and subsequently embedded in paraffin for sectioning. […] Slides were then exposed to biotin-conjugated secondary antibodies for 45 minutes and then streptavidin peroxidase for 10 minutes. Staining was visualized using the Nova Red HRP Substrate (Vector Laboratories).\nMouse PCSK9 was measured using the Quantikinine® ELISA kit (#MCP900, R&D Systems) and human PCSK9 using the PCSK9 Quantikinine® ELISA kit (#DCP900, R&D Systems). Serum ApoB levels were also quantified using ELISAs (#DAPB00, R&D Systems). Serum samples were diluted as per manufacturer's instructions.\n(§1) All animal studies were carried out in 8 h-fasted male wild-type, Pcsk9^−/− or Ampkβ1^−/− mice on the C57BL/6J background. CF (25-100 mg/kg-8 h) and CDN (50 mg/kg) treatments were administered via intraperitoneal injection unless specified otherwise. Primary mouse hepatocytes were isolated using a two-step process with EGTA ([…] in HEPES buffer, Sigma Aldrich) and collagenase (0.05% in HEPES buffer, Sigma Aldrich) in 12-week-old male mice on the C57BL/6J background. Cells were then washed, centrifuged, and plated following isolation in cell strainers. Hepatosure® 100-donor pooled primary human hepatocytes were purchased from Xenotech. Primary hepatocytes were regularly grown in William's E medium (Gibco, Thermo Fisher Scientific) containing 10% fetal bovine serum, 100 IU/ml penicillin, and 100 µg/ml streptomycin.\nNext, the effect of CF on PCSK9 expression/secretion and ER stress marker expression was assessed in mice. […] Immunohistochemical staining intensities were quantified using ImageJ Software (FIG. 9 E)."}, "calnexin": {"tested_on": "calnexin", "assay": "Calnexin protein expression in HuH7 cells (immunoblot)", "assay_type": "cell-based, human", "experimental": "Cells were washed in phosphate-buffered saline (PBS), lysed in 4× SDS-PAGE lysis buffer and separated on 7-10% polyacrylamide gels in denaturing conditions. Gels were transferred to nitrocellulose membranes using the BioRad mini trans-blot system, blocked in 5% skim milk in tris-buffered saline (TBS) for 1 h and incubated in primary antibody overnight for 16 h at 4° C. Membranes were then exposed to horse radish peroxidase conjugated secondary antibodies and visualized using EZ-ECL chemiluminescent reagent (Froggabio). Band intensities were quantified using ImageJ software ([…]) against membranes reprobed for housekeeping proteins.\nAmong the many intracellular effects of CF on the cell, its ability to increase intracellular Ca^2+ levels is well-studied (Echeverri, D., et al., 2010). […] ER Ca^2+ levels were then examined in cells transfected with D1ER; a genetically-encoded ER-resident fluorescence resonance energy transfer (FRET)-based […] chameleon Ca^2+ sensor, which increases in fluorescence intensity upon Ca^2+ binding (Palmer, A. E., et al., 2004). The low-affinity Ca^2+ indicator, Mag-Fluo-4, was also utilized for the direct assessment of ER Ca^2+ and increases in fluorescence intensity upon Ca^2+ binding (Diercks, B. P., et al., 2017; Lebeau, P., et al., 2021). […] ER Ca^2+ content was also assessed indirectly with the high affinity Ca^2+ dye, fura-2-AM (FIG. 6 B). […]"}, "cytosolic Ca^2+ levels": {"tested_on": "cytosolic Ca^2+ levels", "assay": "Cytosolic Ca2+ in hepatocytes (Fura-2-AM)", "assay_type": "cell-based, human", "settings": "immortalized HuH7 hepatocytes, listed as CF", "experimental": "Intracellular Ca^2+ in Huh7 and HepG2 cells was measured using a high-affinity Ca^2+ indicator, Fura-2-AM (Thermofisher Scientific). ER Ca^2+ levels were assessed using the low-affinity Ca^2+ indicator, Mag-Fluo-4, and via transfection of cells with D1ER. The D1ER plasmid encodes an ER-resident calcium binding protein linked to a fluorescent protein and increases in fluorescence intensity upon Ca^2+ binding (7). […] Cells were then washed and incubated with Fura-2-AM (2 μM) or Mag-Fluo-4 (2 μM) for 45 minutes at 37° C. in HBSS containing 20 mM HEPES and 2% pluronic acid v/v (Thermofisher Scientific).\nTo test this hypothesis, cytosolic Ca^2+ levels in CF-treated cells were first examined using the high-affinity fluorescent Ca^2+ indicator, Fura-2-AM. […] The fluorescence intensity of cells treated with CF and control agents, TG and CDN, was assessed using a fluorescent spectrophotometer and visualized using a fluorescent microscope (FIG. 6 A). […] ER Ca^2+ content was also assessed indirectly with the high affinity Ca^2+ dye, fura-2-AM (FIG. 6 B)."}, "PCSK9": {"tested_on": "PCSK9", "assay": "Plasma PCSK9 in healthy human subjects after oral CF", "assay_type": "in vivo", "settings": "fasted healthy subjects, 400 mg orally (~5 mg/kg)", "experimental": "Secreted PCSK9 levels were assessed directly in cell culture medium of cells grown in FBS-free medium for 24 h or in the serum isolated from either mice or human subjects. Mouse PCSK9 was measured using the Quantikinine® ELISA kit (#MCP900, R&D Systems) and human PCSK9 using the PCSK9 Quantikinine® ELISA kit (#DCP900, R&D Systems). Serum ApoB levels were also quantified using ELISAs (#DAPB00, R&D Systems). Serum samples were diluted as per manufacturer's instructions.\nHealthy human subjects between the ages of 22 and 45 underwent fasting for 12 h prior to oral administration of 400 mg CF (˜5 mg/kg). Blood was collected prior to administration and at h 2 and 4 following administration.\nGiven that CF is among the most commonly consumed pharmacologically active compounds in the world (8), its ability to affect PCSK9 levels in fasted healthy volunteers was assessed. Serum was collected prior to, as well as 2- and 4-h post CF treatment (400 mg orally; ˜5 mg/kg). Consistent with the observations in cultured hepatocytes and in mice, CF reduced plasma PCSK9 levels in healthy subjects by 25% (n=12) and 21% (n=8) at the 2- and 4-h time points, respectively (FIG. 11 A and B)."}, "[1]": {"tested_on": "Pcsk9+/+ and Pcsk9−/− mice", "settings": "CF 8 h", "experimental": "as §1"}, "[2]": {"settings": "18-week-old C57BL/6J mice, CF 30 mg/kg every 24 hours for 14 days"}}, "note": "“Also recorded” adds a separate entry of the source."}
{"smiles": "Cc1ccc2cccc(NC(=O)c3ccc(OC(C)C)cc3)c2n1", "note": "[CDN]", "values": [{"measurement": "hepatic LDLR expression (CDN)", "setting": "C57BL/6J mice; mice, 50 mg/kg, IP, 8 h", "value": "increased hepatic LDLR expression"}]}
{"smiles": "C/C=C(/C)C(=O)O[C@H]1C(C)=C2[C@H]([C@@H]1OC(=O)CCCCCCC)[C@@](C)(OC(C)=O)C[C@H](OC(=O)CCC)[C@@]1(O)[C@H]2OC(=O)[C@@]1(C)O", "note": "[TG, thapsigargin]", "values": [{"measurement": "calnexin protein expression", "setting": "calnexin", "value": "blocked"}]}
{"smiles": "Cn1c(=O)c2c(ncn2C)n(C)c1=O", "note": "[caffeine, 1,3,7-Trimethylxanthine]", "values": [{"measurement": "serum Apolipoprotein B (ApoB)", "setting": "C57BL/6J mice; [2]", "value": "reduction"}, {"measurement": "serum PCSK9 after daily dosing", "setting": "C57BL/6J mice; [2]", "value": "reduction"}, {"measurement": "circulating PCSK9 levels after oral gavage", "setting": "C57BL/6J mice; mice, CF 20 mg/kg oral gavage, listed as CF", "value": "reduced circulating PCSK9 levels; also recorded: reduces plasma PCSK9 levels"}, {"measurement": "circulating PCSK9 levels", "setting": "C57BL/6J mice; mice, CF 50 mg/kg IP, 8 h", "value": "significant reduction"}, {"measurement": "circulating triglyceride levels", "setting": "C57BL/6J mice; mice, CF 50 mg/kg IP, 8 h", "value": "significant reduction"}, {"measurement": "time required to significantly reduce plasma PCSK9", "setting": "C57BL/6J mice; mice, time-course", "value": 4, "unit": "h"}, {"measurement": "hepatic expression of UPR markers / chaperones", "setting": "C57BL/6J mice; mouse liver, CF 50 mg/kg, 8 h, listed as CF", "value": "reduced the expression of UPR markers; also recorded: reduces chaperone expression"}, {"measurement": "cytosolic Ca^2+ levels", "setting": "cytosolic Ca^2+ levels", "value": "significantly increased cytosolic Ca^2+ levels; also recorded: increases cytosolic Ca^2+ levels"}, {"measurement": "calnexin protein expression", "setting": "calnexin", "value": "induced"}, {"measurement": "reduction of plasma PCSK9 levels at 2 h", "setting": "PCSK9; 2 h", "value": 25, "unit": "%"}, {"measurement": "reduction of plasma PCSK9 levels at 4 h", "setting": "PCSK9; 4 h", "value": 21, "unit": "%"}, {"measurement": "hepatic and serum DiI fluorescence in Pcsk9−/− mice", "setting": "[1]", "value": "failed to affect these parameters"}]}
